Experimental findings from US11472826B2, “Acyclic antivirals” (priority 2016, dated 2022) are described below.

Like-named read-outs stand apart in the source and are kept apart here.

Test [1] deals with VSV-G pseudotyped HIV NL4-3. Briefly: microbe, parasite or virus in culture. The format is cell-based. Conditions: Human immunodeficiency virus 1, NL43, 72 h.
Test [2] deals with HBV. As to the kind of experiment: microbe, parasite or virus in culture. It counts as cell-based.
The target of test [3] is Recombinant full length HIV-1 Reverse Transcriptase (HIVrt) (Human immunodeficiency virus type 1 group M subtype B (isolate HXB2) (HIV-1), UniProt P04585). Briefly: Inhibition of HIV reverse transcriptase (HIVrt RNA-dependent DNA polymerization assay). It counts as biochemical. Conditions: 1 nM HIVrt, c5′UTR RNA template, 30° C., 40 min; phosphono diphosphates tested. On the procedure: Recombinant full length HIV-1 Reverse Transcriptase (HIVrt) was purchased from Abcam, catalog #ab63979. The last 385 nucleotide region of the HCV anti-genome complementary to the 5′ untranslated region (c5′UTR) was synthesized using T7 RNA polymerase Megascript kit from Ambion (Cat #AM1333). A DNA oligo served as an internal initiation primer and was purchased from IDT. Unless otherwise specified, reaction samples consisted of 20 nM c5′UTR RNA, 100 nM DNA primer, and 1 nM HIVrt, mixed together in a buffer containing 50 mM Tris pH 7.5, 100 mM KCl, 4 mM dithiothreitol (DTT), and 12.5 mM MgCl2. Reactions were initiated at 30° C. by adding 0.1 μM adenosine triphosphate (dATP), 0.1 μM cytosine triphosphate (dCTP), 1 μM guanosine triphosphate (dGTP), and 0.32 μM ^3H-thymidine triphosphate (^3H-TTP), in a final volume of 50 μL. After 40-mins incubation, the reaction was terminated by adding 60 μl of chilled 20% (w/v) trichloroacetic acid with 500 μM ATP to precipitate nucleic acids. After incubation at 4° C. for 1 h, the sample underwent filtration on a multiscreen BV 1.2-μm 96-well plate (Millipore). 40 μL Microscint-20 (Perkin Elmer) was added to the well and the counts in the sample were determined by a Trilux Microbeta microplate scintillation reader (Wallac).
All data were analyzed with GraphPad Prism. The compound concentration at which the enzyme-catalyzed rate was reduced by 50% (IC50) was calculated by fitting the data to the equation Y=% Min+(% Max−% Min)/(1+X/IC50), where Y corresponds to the percent relative enzyme activity, % Min is the residual relative activity at saturating compound concentration, % Max is the relative maximum enzyme activity, and X corresponds to the compound concentration. The Ki was calculated using the Cheng-Prusoff equation assuming competitive inhibition relative to natural dNTP incorporation: Ki=IC50/(1+[dNTP]/Km), where [dNTP] is the concentration of natural dNTP and Km is the apparent Km for dNTP. The standard HIVrt RNA-dependent DNA polymerization (RdDp) assay was used to determine the IC50 values.

Setting [4] is: Hepatitis B virus, HepG2.117 cells, 72 hours, HBV viral copy numbers in supernatant, read-out: EC50.
The mark [5] stands for this setting: Hepatitis B virus, HepG2.117, 72 h.

The EC50 is the concentration at which the effect is half-maximal. Consider `Nc1ncnn2c(COCCP(=O)(O)O)ccc12` [Compound 1, (2-((4-aminopyrrolo[2,1-f][1,2,4]triazin-7-yl)methoxy)ethyl)phosphonic Acid], for which the EC50 is above 100 µM in test [1] and below 1 µM in test [2] (setting [4]).
Consider `C[C@H](Cc1ccc2c(N)ncnn12)OCP(=O)(O)O` [Compound 2, (R)-(((1-(4-aminopyrrolo[2,1-f][1,2,4]triazin-7-yl)propan-2-yl)oxy)methyl)phosphonic Acid], for which the EC50 in test [1] lay in the range of 20 to 100 µM; in test [2] (setting [4]), 10 to 100 µM.
Turning to `Nc1ncnn2c(CCOCP(=O)(O)O)ccc12` [Compound 3, ((2-(4-aminopyrrolo[2,1-f][1,2,4]triazin-7-yl)ethoxy)methyl)phosphonic Acid], the EC50 in test [1] was above 100 µM.
`C[C@H](Cc1nnc2c(N)ncnn12)OCP(=O)(O)O` [Compound 4, (R)-(((1-(8-amino-[1,2,4]triazolo[3,4-f][1,2,4]triazin-3-yl)propan-2-yl)oxy)methyl)phosphonic Acid] had a half-maximal effective concentration (EC50) in test [1] above 100 µM.
The compound `C[C@H](Cc1cnc2c(N)ncnn12)OCP(=O)(O)O` [Compound 5, (R)-(((1-(4-aminoimidazo[2,1-f][1,2,4]triazin-7-yl)propan-2-yl)oxy)methyl)phosphonic Acid] registered an EC50 in test [1] below 20 µM.
As to `C[C@H](Cc1ncc2c(N)ncnn12)OCP(=O)(O)O` [Compound 6, (R)-(((1-(4-aminoimidazo[5,1-f][1,2,4]triazin-7-yl)propan-2-yl)oxy)methyl)phosphonic Acid], the EC50 in test [1] is above 100 µM.
For the compound `CC(Cc1cnn2c(N)ncnc12)OCP(=O)(O)O` (stereo not shown) [Compound 7, (1-(4-aminopyrazolo[1,5-a][1,3,5]triazin-8-yl)propan-2-yloxy)methylphosphonic Acid], the EC50 in test [1] is below 20 µM.
In the case of `CC(Cc1ccc2c(N)nc(F)nn12)OCP(=O)(O)O` (stereo not shown) [Compound 8, (((1-(4-amino-2-fluoropyrrolo[2,1-f][1,2,4]triazin-7-yl)propan-2-yl)oxy)methyl)phosphonic Acid], the 50% effective concentration (EC50) in test [1] is 20 to 100 µM; in test [2] (setting [4]), 10 to 100 µM.
On to `CC(C)OC(=O)OCOP(=O)(COCCc1ccc2c(N)ncnn12)OCOC(=O)OC(C)C` [Compound 15], for which, in test [2] (setting [4]), the EC50 is 1 to 10 µM.
Consider `CC(C)OC(=O)OCOP(=O)(COC(CF)Cc1cnn2c(N)ncnc12)OCOC(=O)OC(C)C` (stereo not shown) [Compound 16], for which the EC50 in test [2] (setting [4]) is below 1 µM.
Still for that read-out and setting: under `CC(C)OC(=O)OCOP(=O)(COC(C)Cc1ccc2c(N)nc(N)nn12)OCOC(=O)OC(C)C` (stereo not shown) [Compound 18] stands 1 to 10 µM.
A word on the IC50: it is the concentration that inhibits the measured activity by half. Regarding `Nc1ncnn2c(COCCP(=O)(O)OP(=O)(O)OP(=O)(O)O)ccc12` [Compound 19], the IC50 in test [3] is at least 0.25 µM.
On to `Nc1ncnn2c(CCOCP(=O)(O)OP(=O)(O)OP(=O)(O)O)ccc12` [Compound 20], for which the IC50 in test [3] was below 0.05 µM.
Regarding `C[C@H](Cc1ccc2c(N)ncnn12)OCP(=O)(O)OP(=O)(O)OP(=O)(O)O` [Compound 21], the IC50 in test [3] is below 0.05 µM.
Regarding `C[C@H](Cc1nnc2c(N)ncnn12)OCP(=O)(O)OP(=O)(O)OP(=O)(O)O` [Compound 22], the IC50 in test [3] is at least 0.25 µM.
Consider `C[C@H](Cc1cnc2c(N)ncnn12)OCP(=O)(O)OP(=O)(O)OP(=O)(O)O` [Compound 23], for which the 50% inhibitory concentration (IC50) in test [3] was below 0.05 µM.
Take `C[C@H](Cc1ncc2c(N)ncnn12)OCP(=O)(O)OP(=O)(O)OP(=O)(O)O` [Compound 24]: the IC50 in test [3] was at least 0.25 µM.
Take `C[C@H](Cc1cnn2c(N)ncnc12)OCP(=O)(O)OP(=O)(O)OP(=O)(O)O` [Compound 25]: the IC50 in test [3] was in the range of 0.05 to 0.25 µM.
For `C[C@@H](Cc1cnn2c(N)ncnc12)OCP(=O)(O)OP(=O)(O)OP(=O)(O)O` [Compound 26], the IC50 in test [3] was below 0.05 µM.
As for `CC(Cc1ccc2c(N)nc(F)nn12)OCP(=O)(O)OP(=O)(O)OP(=O)(O)O` (stereo not shown) [Compound 27], the IC50 in test [3] was below 0.05 µM.
For `CC(Cc1ccc2c(N)nc(N)nn12)OCP(=O)(O)OP(=O)(O)OP(=O)(O)O` (stereo not shown) [Compound 28], the IC50 in test [3] was at least 0.25 µM.
In test [1], `C[C@H](Cc1cnn2c(N)ncnc12)OCP(=O)(O)O` [Compound 29] showed an EC50 of 20 to 100 µM.
Compound `C[C@@H](Cc1cnn2c(N)ncnc12)OCP(=O)(O)O` [Compound 30] displayed a concentration giving a half-maximal response (EC50) in test [1] below 20 µM.
For the compound `CC(Cc1cnc2c(=O)[nH]c(N)nn12)OCP(=O)(O)O` (stereo not shown) [Compound 48, (((1-(2-amino-4-oxo-3,4-dihydroimidazo[2,1-f][1,2,4]triazin-7-yl)propan-2-yl)oxy)methyl)phosphonic Acid], in test [2] (setting [4]), the EC50 is below 1 µM.
In the case of `CC(C)OC(=O)OCOP(=O)(COC(C)Cc1ccc2c(=O)[nH]c(N)nn12)OCOC(=O)OC(C)C` (stereo not shown) [Compound 51], the concentration for a half-maximal effect (EC50) in test [2] (setting [4]) was below 1 µM.
As for `CC(C)OC(=O)[C@H](C)NP(=O)(CO[C@H](C)Cc1cnn2c(N)ncnc12)Oc1ccccc1` (stereo partly shown) [Compound 52], in test [2] (setting [5]), the EC50 was below 1 µM.
In test [2] (setting [5]), `CC(C)OC(=O)[C@H](C)NP(=O)(CO[C@H](C)Cc1cnc2c(N)ncnn12)Oc1ccccc1` (stereo partly shown) [Compound 53] yielded a concentration for a half-maximal effect (EC50) below 1 µM.
For the compound `CC(Cc1ccc2c(=O)[nH]cnn12)OCP(=O)(O)OP(=O)(O)OP(=O)(O)O` (stereo not shown) [Compound 55], the IC50 in test [3] is at least 0.25 µM.
As for `CC(Cc1ccc2c(=O)[nH]c(N)nn12)OCP(=O)(O)OP(=O)(O)OP(=O)(O)O` (stereo not shown) [Compound 56], in test [3], the IC50 was below 0.05 µM.
Regarding `CC(Cc1cnc2c(=O)[nH]c(N)nn12)OCP(=O)(O)OP(=O)(O)OP(=O)(O)O` (stereo not shown) [Compound 57], in test [3], the IC50 was 0.05 to 0.25 µM.
On to `Nc1ncnc2c(C[C@@H](CF)OCP(=O)(O)OP(=O)(O)OP(=O)(O)O)cnn12` [Compound 58], for which the IC50 in test [3] is below 0.05 µM.
Turning to `Nc1ncnc2c(C[C@H](CF)OCP(=O)(O)OP(=O)(O)OP(=O)(O)O)cnn12` [Compound 59], in test [3], the IC50 was below 0.05 µM.
In the case of `Nc1ncnc2c(CC3(OCP(=O)(O)OP(=O)(O)OP(=O)(O)O)CC3)cnn12` [Compound 60], in test [3], the half-maximal inhibitory concentration (IC50) was 0.05 to 0.25 µM.
As to `CC(C)OC(=O)[C@H](C)NP(=O)(COC(C)Cc1cnc2c(=O)[nH]c(N)nn12)Oc1ccccc1` (stereo partly shown) [Compound 61], in test [2] (setting [5]), the EC50 was below 1 µM.
Still for that read-out and setting: under `CC(C)OC(=O)[C@H](C)NP(=O)(CO[C@@H](CF)Cc1cnn2c(N)ncnc12)Oc1ccccc1` (stereo partly shown) [Compound 62] stands below 1 µM; under `CC(C)OC(=O)[C@H](C)NP(=O)(CO[C@H](CF)Cc1cnn2c(N)ncnc12)Oc1ccccc1` (stereo partly shown) [Compound 63], below 1 µM.
As to `Nc1ncnc2c(CC3(OCP(=O)(O)O)CC3)cnn12` [Compound 64, ((1-((4-aminopyrazolo[1,5-a][1,3,5]triazin-8-yl)methyl)cyclopropoxy)methyl) phosphonic Acid], the EC50 in test [2] (setting [4]) was in the range of 10 to 100 µM.
As to `Nc1ncnc2c(C[C@H](OCP(=O)(O)O)C(F)F)cnn12` [Compound 65, (S) (((3-(4-aminoprazolo[1,5-a][1,3,5]triazin-8-yl)-1,1-difluoropropan-2-yl)oxy)methyl)phosphonic Acid], the EC50 in test [2] (HepG2.117 cells, 72 hours, HBV viral copy numbers in supernatant, read-out: EC50) was in the range of 1 to 10 µM.
As to `Nc1ncnc2c(C[C@@H](OCP(=O)(O)O)C(F)F)cnn12` [Compound 66, (R)-(((3-(4-aminopyrazolo[1,5-a][1,3,5]triazin-8-yl)-1,1-difluoropropan-2-yl)oxy)methyl)phosphonic Acid], the EC50 in test [2] (setting [4]) fell in the range of 1 to 10 µM.
Consider `Nc1ncnn2c(C[C@@H](CF)OCP(=O)(O)O)cnc12` [Compound 67, (S)-(((1-(4-aminoimidazo[2,1-f][1,2,4]triazin-7-yl)-3-fluoropropan-2-yl)oxy)methyl) phosphonic Acid], for which, in test [2] (setting [4]), the EC50 was in the range of 10 to 100 µM.
Take `Nc1ncnn2c(C[C@H](CF)OCP(=O)(O)O)cnc12` [Compound 68, (R)-(((1-(4-aminoimidazo[2,1-f][1,2,4]triazin-7-yl)-3-fluoropropan-2-yl)oxy)methyl)phosphonic Acid]: the EC50 in test [2] (setting [4]) was below 1 µM.
Take `Nc1ncnc2c(C[C@H](OCP(=O)(O)OP(=O)(O)OP(=O)(O)O)C(F)F)cnn12` [Compound 79]: the IC50 in test [3] is at least 0.25 µM.
Same read-out and setting: next, `Nc1ncnn2c(C[C@@H](CF)OCP(=O)(O)OP(=O)(O)OP(=O)(O)O)cnc12` [Compound 80]: 0.05 to 0.25 µM; `Nc1ncnc2c(C[C@@H](OCP(=O)(O)OP(=O)(O)OP(=O)(O)O)C(F)F)cnn12` [Compound 81]: 0.05 to 0.25 µM; `Nc1ncnn2c(C[C@H](CF)OCP(=O)(O)OP(=O)(O)OP(=O)(O)O)cnc12` [Compound 82]: 0.05 to 0.25 µM.
On to `CC(C)(Cc1cnn2c(=O)[nH]c(N)nc12)OCP(=O)(O)OP(=O)(O)OP(=O)(O)O` [Compound 83], for which the IC50 in test [3] is at least 0.25 µM.
